Experimental data published in ChEMBL document CHEMBL4043248, “Structure-activity relationship study of β-oxidation resistant indole-based 5-oxo-6,8,11,14-eicosatetraenoic acid (5-oxo-ETE) receptor antagonists” (Bioorg Med Chem Lett, 2017).

Molecular target: Oxoeicosanoid receptor 1 (Homo sapiens, UniProt Q8TDS5)
Test: Antagonist activity at OXE receptor in human neutrophils assessed as inhibition of 5-oxo-ETE-induced calcium mobilization incubated for 2 mins followed by 5-oxo-ETE addition measured after 1 min by fluorescence assay
Format: functional

Oxoeicosanoid receptor 1, sequence (Q8TDS5 whole entry): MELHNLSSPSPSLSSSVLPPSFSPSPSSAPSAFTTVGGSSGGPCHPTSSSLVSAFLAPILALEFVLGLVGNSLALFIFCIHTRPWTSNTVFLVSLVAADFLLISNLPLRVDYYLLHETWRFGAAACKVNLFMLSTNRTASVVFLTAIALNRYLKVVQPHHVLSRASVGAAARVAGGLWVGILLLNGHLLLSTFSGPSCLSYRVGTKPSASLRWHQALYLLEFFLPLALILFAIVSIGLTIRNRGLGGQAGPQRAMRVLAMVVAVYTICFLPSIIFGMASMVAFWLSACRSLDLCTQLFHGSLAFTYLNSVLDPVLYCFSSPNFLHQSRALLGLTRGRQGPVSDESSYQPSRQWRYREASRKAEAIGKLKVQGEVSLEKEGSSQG

SMILES	IC50 [nM]
CCCCCCc1c(C(=O)CC(C)CC(=O)O)c2cc(Cl)ccc2n1C (stereo unspecified)	16 to 20
CCCCCCc1c(C(=O)C[C@@H](C)CC(=O)O)c2cc(Cl)ccc2n1C	2700
CCCCCCc1c(C(=O)C(C)(C)CCC(=O)O)c2cc(Cl)ccc2n1C	8150
CCCCCCc1c(C(=O)c2cccc(C(=O)O)c2)c2cc(Cl)ccc2n1C	1120
CCCCCCc1c(C(=O)CC(C)(C)CC(=O)O)c2cc(Cl)ccc2n1C	1330
CCCCCCc1c(C(=O)CC2(CC(=O)O)CC2)c2cc(Cl)ccc2n1C	580
CCCCCCCCCCCc1c(C(=O)CC(C)CC(=O)O)c2cc(Cl)ccc2n1C (stereo unspecified)	23
CCCCCCc1c(C(=O)c2ccc(C(=O)O)cc2)c2cc(Cl)ccc2n1C	1360
CCCCCCc1c(C(=O)CC2(CC(=O)O)CCC2)c2cc(Cl)ccc2n1C	720
CCCCCCc1c(C(=O)COCC(=O)O)c2cc(Cl)ccc2n1C	5500
CCCCCCc1c(C(=O)CCC(C)(C)C(=O)O)c2cc(Cl)ccc2n1C	4060
